# According to ChEMBL document CHEMBL1157109, “Differentiating and apoptotic dose-dependent effects in (-)-alpha-bisabolol-treated human endothelial cells” (2010):
# The source made the active and inactive calls. The rule behind the calls is not given here.
# How the values were obtained:
# HUVEC [1] = assay: Induction of apoptosis in HUVEC assessed as procaspase3 activation at 5 uM after 4 hrs by Western blot analysis; type: functional, cell-based; settings: Homo sapiens
# HUVEC [2] = assay: Cytotoxicity against HUVEC at 0.5 uM after 72 hrs by trypan blue dye exclusion test relative to control; type: functional, Homo sapiens
# HUVEC [3] = assay: Angiogenic activity against HUVEC assessed as organization of cells in a capillary like structure at 0.25 uM after 4 hrs; type: functional, cell-based; settings: Homo sapiens
# HUVEC [4] = assay: Angiogenic activity against HUVEC assessed as organization of cells in a capillary like structure at 0.1 uM after 4 hrs; type: functional, cell-based; settings: Homo sapiens
# HUVEC [5] = assay: Induction of apoptosis in HUVEC assessed as cytochrome C release at 5 uM after 24 hrs by Western blot analysis; type: functional, cell-based; settings: Homo sapiens
# HUVEC [6] = assay: Cytotoxicity against HUVEC assessed as change in cell number at 25 uM after 72 hrs by trypan blue dye exclusion test; type: functional, cell-based; settings: Homo sapiens
# HUVEC [7] = assay: Cytotoxicity against HUVEC at 5 uM after 6 hrs by Trypan blue dye exclusion test; type: functional, Homo sapiens
# HUVEC [8] = assay: Antiangiogenic activity against HUVEC assessed as inhibition of capillary tube organization at 0.5 uM after 4 hrs; type: functional, cell-based; settings: Homo sapiens
# HUVEC [9] = assay: Induction of apoptosis in HUVEC assessed as effect on bax protein level after 1 hr by Western blot analysis; type: functional, cell-based; settings: Homo sapiens
# HUVEC [10] = assay: Cytotoxicity against HUVEC at 0.15 uM after 72 hrs by trypan blue dye exclusion test relative to control; type: functional, Homo sapiens
# HUVEC [11] = assay: Cytotoxicity against HUVEC at 0.25 uM after 72 hrs by trypan blue dye exclusion test relative to control; type: functional, Homo sapiens
# HUVEC [12] = assay: Cytotoxicity against HUVEC at 0.35 uM after 72 hrs by trypan blue dye exclusion test relative to control; type: functional, Homo sapiens
# HUVEC [13] = assay: Induction of apoptosis in HUVEC assessed as down-regulation of Bcl2 protein level at 5 uM after 0.5 hr by Western blot analysis; type: functional, cell-based; settings: Homo sapiens
# HUVEC [14] = assay: Induction of apoptosis in HUVEC assessed as cytochrome C release at 5 uM after 4 hrs by Western blot analysis; type: functional, cell-based; settings: Homo sapiens
# HUVEC [15] = assay: Induction of apoptosis in HUVEC assessed as procaspase3 activation at 0.25 uM after 4 hrs by Western blot analysis; type: functional, cell-based; settings: Homo sapiens
# HUVEC [16] = assay: Induction of apoptosis in HUVEC assessed as procaspase3 activation at 5 uM after 24 hrs by Western blot analysis; type: functional, cell-based; settings: Homo sapiens
# HUVEC [17] = assay: Antiangiogenic activity in HUVEC assessed as decrease in cell migration at 0.25 uM after 4 hrs in the presence of FGF2 relative to control; type: functional, cell-based; settings: Homo sapiens
smiles,measurement,setting,value
CC(C)=CCC[C@](C)(O)[C@@H]1CC=C(C)CC1 [LEVOMENOL],Activity,HUVEC [1],Active
same,Activity,HUVEC [2],90%
same,Activity,HUVEC [3],Active
same,Activity,HUVEC [4],Active
same,Activity,HUVEC [5],Active
same,Activity,HUVEC [6],inactive
same,Activity,HUVEC [7],>60%
same,Activity,HUVEC [8],Active
same,Activity,HUVEC [9],inactive
same,Activity,HUVEC [10],65%
same,Activity,HUVEC [11],78%
same,Activity,HUVEC [12],82%
same,Activity,HUVEC [13],Active
same,Activity,HUVEC [14],Active
same,Activity,HUVEC [15],inactive
same,Activity,HUVEC [16],Active
same,Activity,HUVEC [17],Active
